In patent US20240368120A1 (Terns Pharmaceuticals, Inc., priority 2023, published 2024) one finds EC50 and Emax data, which are given here for 9 compounds.

The experiment addresses T1, human GLP-1R receptor (Homo sapiens, UniProt P43220).
T1 construct: expressed in transfected cells
In words: GLP-1R low expression cell assay (cAMP TR-FRET, CHO-K1_hGLP-1Rlow_clone10 cells). The settings on record: for EC50: cAMP TR-FRET, 30 min at 25° C.; for Emax: maximum activation relative to control GLP-1 peptide agonist. The class given is cell-based. On the procedure: Stable cell lines expressing high and low GLP-1R surface expression were generated in CHO-K1 cells transfected (Fugene 6) with a puromycin selectable DNA plasmid encoding human GLP-1R receptor (accession number: NM_002062.5) under control of an EF1A promoter. Transfected cells were seeded into 24-well plates (9,000 cells/well) containing complete medium and incubated in a humidified incubator at 37° C. with 5% carbon dioxide. After overnight incubation, medium was replaced with complete medium supplemented with puromycin (6 μg/mL) and refreshed every 2-3 days to select for stably transfected cells. Individual pools of selected cells were expanded prior to analysis for responsiveness to GLP-1 control peptide using a TR-FRET assay to detect cAMP (LANCE Ultra CAMP Assay, Perkin Elmer). Briefly, cells were collected in Versene solution, plated in 384-well plates (1,000 cells/well) and combined with serially diluted GLP-IR control peptide (10 nL) using an acoustic dispenser (ECHO). Plates were incubated for 30 minutes at 25° C. prior to the addition of EU-CAMP tracer (5 μL) and Ulight-anti-CAMP (5 μL) reagents to each well, followed by 15 minutes incubation at 25° C. TR-FRET signal was detected using an En Vision Multimode Plate Reader (excitation=320 nm; emission=615 and 655 nm). Dose-response curves were used to generate EC50 values as a measure of responsiveness to the GLP-IR control peptide. Selected cell lines were monitored for responsiveness over multiple passages to ensure stability. […] Briefly, GLP-IR expression was analyzed by flow cytometry using a fluorescein-labeled Exendin-4 peptide fluorescent probe (FLEX). Cells were harvested in Versene solution and washed 3-times with PBS+0.5% BSA before incubation with FLEX reagent (10 μM) for 2 hours at room temperature. After incubation, cells were washed 3-times in PBS+0.5% BSA before final resuspension in PBS prior to analysis by flow cytometry to measure FLEX mean fluorescence intensity (MFI) as a measure of GLP-IR expression on the cell surface.
For compound testing in the CHO-K1_hGLP-IRlow_clone10 cell line, cells were seeded in 384-well plates (1,000 cells/well). Test compounds were serially diluted in DMSO (10-point, 3-fold dilution), added to wells using an ECHO dispenser (10 nL/well) and plates were centrifuged for 1 min and agitated for 2 min at room temperature prior to 30-minute incubation at 25° C. After incubation, Eu-CAMP (5 μL) and Ulight-anti-cAMP (5 μL) reagents were added to each well, followed by centrifugation for 1 minute, agitation for 2 minutes at room temperature, and final incubation of the plates at 25° C. for 15 minutes. Plates were read using an EnVision microplate reader (excitation=320 nm; emission=615 and 655 nm). Dose-response curves were generated from duplicate wells based on percent activation calculated relative to a control GLP-1 peptide agonist that was run in parallel. EC50 values were determined by fitting percent activation as a function of compound concentration using the Hill equation (XLfit).
The compounds tested were compound samples prepared according to the General Procedures described in the Examples section.

Some results are limits rather than exact numbers.

T1 sequence (P43220 24-463): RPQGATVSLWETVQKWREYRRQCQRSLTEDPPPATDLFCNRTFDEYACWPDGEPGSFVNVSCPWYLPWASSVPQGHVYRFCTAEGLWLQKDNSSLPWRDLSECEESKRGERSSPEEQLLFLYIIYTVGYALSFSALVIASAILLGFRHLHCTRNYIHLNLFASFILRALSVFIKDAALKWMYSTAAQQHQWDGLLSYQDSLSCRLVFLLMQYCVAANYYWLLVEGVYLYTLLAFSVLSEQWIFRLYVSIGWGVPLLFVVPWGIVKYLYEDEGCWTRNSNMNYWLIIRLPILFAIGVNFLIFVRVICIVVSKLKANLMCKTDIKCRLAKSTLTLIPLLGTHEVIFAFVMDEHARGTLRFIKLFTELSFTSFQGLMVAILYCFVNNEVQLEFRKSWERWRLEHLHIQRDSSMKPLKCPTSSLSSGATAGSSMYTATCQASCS

`COCCOc1cc(C(=O)O)cc2c1nc(CN1CCC(c3cccc4c3O[C@@](C)(c3ccc(Cl)cn3)O4)CC1)n2Cc1cncs1` [Compound 2, (S)-2-((4-(2-(5-Chloropyridin-2-yl)-2-methylbenzo[d][1,3]dioxol-4-yl)piperidin-1-yl)methyl)-4-(2-methoxyethoxy)-1-(thiazol-5-ylmethyl)-1H-benzo[d]imidazole-6-carboxylic acid] gave an EC50 of less than 10 nM and an Emax of more than 85%.

As to `Cn1c(CN2CCC(c3cc(OCc4ccc(C#N)cc4F)ccc3F)CC2)nc2c(OC(F)F)cc(C(=O)O)cc21` [Compound 181, 2-((4-(5-((4-Cyano-2-fluorobenzyl)oxy)-2-fluorophenyl)piperidin-1-yl)methyl)-4-(difluoromethoxy)-1-methyl-1H-benzo[d]imidazole-6-carboxylic acid], the EC50 was more than 1000 nM and the maximum response (Emax) was in the range of 50 to 85%.

Take `CO[C@H]1C[C@H](Oc2cc(C(=O)O)cc3c2nc(CN2CCC(c4cccc(OCc5ccc(Cl)cc5F)n4)CC2)n3C)C1` [Compound 325, 2-((4-(6-((4-Chloro-2-fluorobenzyl)oxy)pyridin-2-yl)piperidin-1-yl)methyl)-4-((1r,3r)-3-methoxycyclobutoxy)-1-methyl-1H-benzo[d]imidazole-6-carboxylic acid]: the EC50 lay in the range of 100 to 1000 nM and the Emax is more than 85%.

On to `COc1cc(C(=O)O)cc2c1nc(Cc1cc(F)c(-c3cccc(OCc4ccc(Cl)cc4F)n3)cc1F)n2C` [Compound 282, 2-(4-(6-((4-Chloro-2-fluorobenzyl)oxy)pyridin-2-yl)-2,5-difluorobenzyl)-4-methoxy-1-methyl-1H-benzo[d]imidazole-6-carboxylic acid], for which the EC50 was less than 10 nM and the maximal response (Emax) was more than 85%.

Turning to `[2H]C([2H])(Oc1cccc(C2CCN(Cc3nc4c(OC(F)F)cc(C(=O)O)cc4n3C)CC2)n1)c1ccc(Cl)cc1F` [Compound 195, 2-((4-(6-((4-Chloro-2-fluorophenyl)methoxy-d2)pyridin-2-yl)piperidin-1-yl)methyl)-4-(difluoromethoxy)-1-methyl-1H-benzo[d]imidazole-6-carboxylic acid], the EC50 was 10 to 100 nM and the Emax was more than 85%.

As for `COCCn1c(CN2CCC(c3cccc(OCc4ccc(C#N)cc4F)n3)CC2)nc2c(OC(F)F)cc(C(=O)O)cc21` [Compound 106, 2-((4-(6-((4-Cyano-2-fluorobenzyl)oxy)pyridin-2-yl)piperidin-1-yl)methyl)-4-(difluoromethoxy)-1-(2-methoxyethyl)-1H-benzo[d]imidazole-6-carboxylic acid], the 50% effective concentration (EC50) is less than 10 nM and the Emax is more than 85%.

With `COc1cc(C(=O)O)cc2c1nc(CN1CCC(c3cccc4c3OC[C@H](c3ccc(Cl)cc3F)O4)CC1)n2C` [Compound 258, (S)-2-((4-(2-(4-Chloro-2-fluorophenyl)-2,3-dihydrobenzo[b][1,4]dioxin-5-yl)piperidin-1-yl)methyl)-4-methoxy-1-methyl-1H-benzo[d]imidazole-6-carboxylic acid], the concentration giving a half-maximal response (EC50) lay in the range of 100 to 1000 nM and the maximal response (Emax) was more than 85%.

For the compound `CCOc1cc(C(=O)NS(C)(=O)=O)cc2c1nc(CN1CCC(c3cccc(OCc4ccc(C#N)cc4F)n3)CC1)n2C` [Compound 261, 2-((4-(6-((4-Cyano-2-fluorobenzyl)oxy)pyridin-2-yl)piperidin-1-yl)methyl)-4-ethoxy-1-methyl-N-(methylsulfonyl)-1H-benzo[d]imidazole-6-carboxamide], the concentration for a half-maximal effect (EC50) fell in the range of 10 to 100 nM and the Emax is more than 85%.

`[2H]C([2H])([2H])N(c1nc2c(OC(F)F)cc(C(=O)O)cc2n1C)[C@H]1CC[C@H](c2cccc(OCc3ccc(Cl)cc3F)n2)CC1` [Compound 372, 2-(((1r,4r)-4-(6-((4-Chloro-2-fluorobenzyl)oxy)pyridin-2-yl)cyclohexyl)(methyl-d3)amino)-4-(difluoromethoxy)-1-methyl-1H-benzo[d]imidazole-6-carboxylic acid] displayed an EC50 of less than 10 nM and a maximal response (Emax) of more than 85%.
